Results taken from article PMC6254274, “Cytotoxic Components of Pereskia bleo (Kunth) DC. (Cactaceae) Leaves” (Molecules, 2009).
Several values for one entry are separate records, joined by “and”; a condition that tells them apart may be missing. Identical values can stand only once. Like-named read-outs stand apart in the source and are kept apart here.

Experiments:
[1] = system: human nasopharyngeal epidermoid carcinoma cell line (KB); assay: In vitro Neutral Red cytotoxicity assay, KB; type: cell-based; conditions: 72 h; for IC50: read-out: Cytotoxicity (IC50) KB
From the text: (§1) No effect due to the DMSO was observed. Doxorubicin was used as the positive control. The well containing untreated cells was the negative control.
(§2) Cytotoxicity of each sample is expressed as IC50 value.

[2] = system: human hormone-dependent breast carcinoma cell line (MCF7); assay: In vitro Neutral Red cytotoxicity assay, MCF7; type: cell-based; conditions: for IC50: read-out: Cytotoxicity (IC50) MCF7
From the text: The well containing untreated cells was the negative control.
as §2

[3] = system: human lung carcinoma cell line (A549); assay: In vitro Neutral Red cytotoxicity assay, A549; conditions: for IC50: read-out: Cytotoxicity (IC50) A549
Description: The in vitro cytotoxicity assay was carried out using a Neutral Red cytotoxicity assay as previously described by Borenfreund and Puerner with some modifications; this test determines the accumulation of the Neutral Red dye in the lysosomes of viable and uninjured cells.
Human nasopharyngeal epidermoid carcinoma cell line (KB), human cervical carcinoma cell line (CasKi), human colon carcinoma cell line (HCT 116), human hormone-dependent breast carcinoma cell line (MCF7), human lung carcinoma cell line (A549) and non-cancer human fibroblast cell line (MRC-5) were purchased from the American Tissue Culture Collection (ATCC, USA). KB cells were maintained in Medium 199 (Sigma), CasKi, A549 and MCF7 cells in RPMI 1640 medium (Sigma), HCT 116 in McCOY’S 5A Medium (Sigma) and MRC-5 cells in EMEM (Eagle Minimum Essential Medium) (Sigma), supplemented with 10% foetal bovine serum (FBS, PAA Lab, Austria), 100 µg/mL penicillin or streptomycin (PAA Lab, Austria) and 50 µg/mL of fungizone (PAA Lab, Austria). The cells were cultured in a 5% CO2 incubator (Shel Lab water-jacketed) kept at 37°C in a humidified atmosphere.
The Neutral Red cytotoxicity assay is based on the initial protocol described by Borenfreund and Puerner with some modifications. Briefly, the cells (1x10^4/well) were seeded in 96-well microtiter plates (Nunc) and allowed to grow for 24 hours before treatment. After 24 hours of incubation, the cells were treated with six different concentrations (0.1-100 µg/mL) of test compounds, in three replicates. The plates were further incubated for 72 h at 37°C in a 5% CO2 incubator. A stock solution was initially obtained by dissolving the test compounds in DMSO. Further dilution to different tested concentrations were then carried out ensuring that the final concentration of DMSO in the test and control wells was not in excess of 1% (v/v). […] The well containing untreated cells was the negative control. At the end of the incubation period, the media were replaced with medium containing 50 µg/mL of Neutral Red. The plates were incubated for another 3 hours to allow for uptake of the vital dye into the lysosomes of viable and […] cells. After the incubation period, the media were removed and cells were washed with the neutral red washing solution. The dye was eluted from the cells by adding 200 µL of Neutral Red resorb solution and incubated for 30 minutes at room temperature with rapid agitation on a microtiter plate shaker. Dye absorbance was measured at 540 nm using a spectrophotometer ELISA plate reader. The average data from triplicates were expressed in terms of killing percentage relative to negative control. The percentage of inhibition (%) of each of the test samples was calculated according to the following formula: [drawing 1] where OD control: Optical Density of negative control; OD sample: Optical Density of sample
Cytotoxicity of each sample is expressed as IC50 value. The IC50 value is the concentration of test compounds that cause 50 % inhibition or cell death, averaged from the three experiments, and was obtained by plotting the percentage inhibition versus concentration of test compounds. […] However, we recognized that whether an IC50 value corresponds to a significant or non-significant cytotoxicity depends on the sensitivity of the cell line.

[4] = system: human colon carcinoma cell line (HCT 116); assay: In vitro Neutral Red cytotoxicity assay, HCT 116; type: cell-based; conditions: for IC50: read-out: Cytotoxicity (IC50) HCT 116
From the text: as §1, §2

[5] = system: human cervical carcinoma cell line (CasKi); assay: In vitro Neutral Red cytotoxicity assay, CasKi; type: cell-based; conditions: 72 h; for IC50: read-out: Cytotoxicity (IC50) CasKi
From the text: as §1, §2

[6] = In vitro Neutral Red cytotoxicity assay, MRC-5; type: cell-based, human; conditions: human
From the text: as §1, §2

[7] = system: non-cancer human fibroblast cell line (MRC-5); assay: In vitro Neutral Red cytotoxicity assay, MRC-5; type: cell-based; conditions: MRC-5 cells, 72 h
From the text: as §1, §2

[8] = Homo sapiens, KB cells, Neutral Red
[9] = Homo sapiens, KB cells, Neutral Red, value in parentheses
[10] = Homo sapiens, MCF7 cells, 72 h, Neutral Red
[11] = Homo sapiens, MCF7 cells, 72 h, Neutral Red, value in parentheses
[12] = Homo sapiens, HCT 116 cells, 72 h, Neutral Red
[13] = Homo sapiens, HCT 116 cells, 72 h, Neutral Red, value in parentheses
[14] = Homo sapiens, Ca-Ski, CasKi cells, Neutral Red
[15] = Homo sapiens, Ca-Ski, CasKi cells, Neutral Red, value in parentheses
[16] = MRC-5 cells (non-cancer fibroblast cell line)
[17] = MRC-5 cells (non-cancer fibroblast cell line), value in parentheses

CC(C)(C)c1ccc(O)c(C(C)(C)C)c1 [2,4-di tert butylphenol (5), 2,4-di-tert-butylphenol]
IC50 [1, 8]: 0.81 µg/mL | IC50 [1, 9]: 3.93 µM | IC50 [2, 10]: 5.75 µg/mL | IC50 [2, 11]: 27.9 µM | IC50 ([3]; Homo sapiens, A549, 72 h): 6 µg/mL and 29.1 µM | IC50 [4, 12]: 29 µg/mL | IC50 [4, 13]: 141 µM | IC50 [5, 14]: 4.5 µg/mL | IC50 [5, 15]: 21.8 µM | IC50 at 72 h [6, 16]: 20 µg/mL | IC50 at 72 h [6, 17]: 97.1 µM

CC[C@H](CC[C@@H](C)[C@H]1CC[C@H]2[C@@H]3CC=C4C[C@@H](O)CC[C@]4(C)[C@H]3CC[C@]12C)C(C)C [β -sitosterol (4), β-sitosterol]
IC50 ([1]; Homo sapiens, KB): > 100 µg/mL and > 242 µM | IC50 ([2]; Homo sapiens, MCF7, 72 h): 72 µg/mL and 174 µM | IC50 ([3]; Homo sapiens, A549, 72 h): 78 µg/mL and 188 µM | IC50 ([4]; Homo sapiens, HCT-116, 72 h): > 100 µg/mL and > 242 µM | IC50 ([5]; Homo sapiens, Ca-Ski): 62 µg/mL and 150 µM | IC50 at 72 h ([6]; MRC-5 cells): > 100 µg/mL | IC50 at 72 h ([6]; MRC-5 cells, value in parentheses): > 242 µM

CC1(C)CCCC2(C)OC(=O)C=C12 (stereo not shown) [Dihydroactinidiolide (1), Dihydroactinidiolide]
IC50 [1, 8]: 6.7 µg/mL | IC50 [1, 9]: 37.2 µM | IC50 [2, 10]: 30 µg/mL | IC50 [2, 11]: 167 µM | IC50 ([3]; Homo sapiens, A549, 72 h): 97 µg/mL and 539 µM | IC50 [4, 12]: 5 µg/mL | IC50 [4, 13]: 27.8 µM | IC50 [5, 14]: 40 µg/mL | IC50 [5, 15]: 222 µM | IC50 at 72 h [6, 16]: 91.3 µg/mL | IC50 at 72 h [6, 17]: 507 µM

Cc1c(C)c2c(c(C)c1O)CC[C@@](C)(CCC[C@H](C)CCC[C@H](C)CCCC(C)C)O2 [α-tocopherol (6), α-tocopherol]
IC50 [1, 8]: 8 µg/mL | IC50 [1, 9]: 18.6 µM | IC50 [2, 10]: 7.5 µg/mL | IC50 [2, 11]: 17.4 µM | IC50 ([3]; Homo sapiens, A549, 72 h): 6 µg/mL and 13.9 µM | IC50 [4, 12]: 31 µg/mL | IC50 [4, 13]: 72.1 µM | IC50 [5, 14]: 6 µg/mL | IC50 [5, 15]: 14 µM | IC50 at 72 h [6, 16]: 30.5 µg/mL | IC50 at 72 h [6, 17]: 70.9 µM

COc1cccc2c1C(=O)c1c(O)c3c(c(O)c1C2=O)C[C@@](O)(C(=O)CO)C[C@@H]3O[C@H]1C[C@H](N)[C@H](O)[C@H](C)O1 [Doxorubicin, reference compound]
IC50 [1, 8]: 0.013 µg/mL | IC50 [1, 9]: 0.023 µM | IC50 ([3]; Homo sapiens, A549, 72 h): 0.22 µg/mL and 401 nM | IC50 [4, 12]: 0.36 µg/mL | IC50 [4, 13]: 0.663 µM | IC50 [5, 14]: 0.006 µg/mL | IC50 [5, 15]: 0.011 µM | IC50 at 72 h [6, 16]: 0.55 µg/mL | IC50 at 72 h [6, 17]: 1.01 µM

phytol [Phytol (7)]
Cytotoxicity (IC50) KB ([1]; KB cells, Neutral Red): 7.1 µg/mL | IC50 ([1]; KB cells, Neutral Red, value in parentheses): 24 µM | Cytotoxicity (IC50) MCF7 ([2]; MCF7 cells, 72 h, Neutral Red): 34 µg/mL | IC50 ([2]; MCF7 cells, 72 h, Neutral Red, value in parentheses): 115 µM | Cytotoxicity (IC50) A549 ([3]; A549 cells, 72 h, Neutral Red): 31 µg/mL | IC50 ([3]; A549 cells, 72 h, Neutral Red, value in parentheses): 105 µM | Cytotoxicity (IC50) HCT 116 ([4]; HCT 116 cells, 72 h, Neutral Red): 100 µg/mL | IC50 ([4]; HCT 116 cells, 72 h, Neutral Red, value in parentheses): 338 µM | Cytotoxicity (IC50) CasKi ([5]; CasKi cells, Neutral Red): 18 µg/mL | IC50 ([5]; CasKi cells, Neutral Red, value in parentheses): 60.8 µM | Cytotoxicity (IC50) MRC-5 [7]: 74.3 µg/mL | IC50 ([7]; value in parentheses): 251 µM
